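Briefly, cells in 96-well plates were exposed to five compound concentrations for 48 h, and endpoints were estimated by linear interpolation. TGI is the concentration that stops growth completely.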
Legend:
Assay in all cases: NCI tumour cell line growth inhibition, 48 h
786-0 renal = test system: 786-0 renal
A549 NSCLC = test system: A549 NSCLC
ACHN renal = test system: ACHN renal
CAKI-1 renal = test system: CAKI-1 renal
CCRF-CEM leukemia = test system: CCRF-CEM leukemia
COLO 205 colon = test system: COLO 205 colon
DLD-1 colon = test system: DLD-1 colon
DMS 114 small cell lung = test system: DMS 114 small cell lung
DMS 273 small cell lung = test system: DMS 273 small cell lung
EKVX NSCLC = test system: EKVX NSCLC
HCC-2998 colon = test system: HCC-2998 colon
HCT-116 colon = test system: HCT-116 colon
HOP-62 NSCLC = test system: HOP-62 NSCLC
HOP-92 NSCLC = test system: HOP-92 NSCLC
HT29 colon = test system: HT29 colon
IGROV1 ovarian = test system: IGROV1 ovarian
K-562 leukemia = test system: K-562 leukemia
KM12 colon = test system: KM12 colon
KM20L2 colon = test system: KM20L2 colon
LOX IMVI melanoma = test system: LOX IMVI melanoma
LXFL 529 NSCLC = test system: LXFL 529 NSCLC
M14 melanoma = test system: M14 melanoma
M19-MEL melanoma = test system: M19-MEL melanoma
MALME-3M melanoma = test system: MALME-3M melanoma
MOLT-4 leukemia = test system: MOLT-4 leukemia
NCI-H226 lung = test system: NCI-H226 lung
NCI-H23 lung = test system: NCI-H23 lung
NCI-H460 lung = test system: NCI-H460 lung
NCI-H522 lung = test system: NCI-H522 lung
OVCAR-3 ovarian = test system: OVCAR-3 ovarian
OVCAR-4 ovarian = test system: OVCAR-4 ovarian
OVCAR-5 ovarian = test system: OVCAR-5 ovarian
OVCAR-8 ovarian = test system: OVCAR-8 ovarian
RXF 393 renal = test system: RXF 393 renal
SF-268 CNS = test system: SF-268 CNS
SF-295 CNS = test system: SF-295 CNS
SF-539 CNS = test system: SF-539 CNS
SK-MEL-2 melanoma = test system: SK-MEL-2 melanoma
SK-MEL-28 melanoma = test system: SK-MEL-28 melanoma
SK-MEL-5 melanoma = test system: SK-MEL-5 melanoma
SK-OV-3 ovarian = test system: SK-OV-3 ovarian
SN12C renal = test system: SN12C renal
SNB-19 CNS = test system: SNB-19 CNS
SNB-75 CNS = test system: SNB-75 CNS
SNB-78 CNS = test system: SNB-78 CNS
SR leukemia = test system: SR leukemia
SW-620 colon = test system: SW-620 colon
TK-10 renal = test system: TK-10 renal
U251 CNS = test system: U251 CNS
UACC-62 melanoma = test system: UACC-62 melanoma
UO-31 renal = test system: UO-31 renal
XF 498 CNS = test system: XF 498 CNS
HL-60(TB) leukemia = test system: HL-60(TB) leukemia
HOP-18 NSCLC = test system: HOP-18 NSCLC
RPMI-8226 leukemia = test system: RPMI-8226 leukemia
UACC-257 melanoma = test system: UACC-257 melanoma
A498 renal = test system: A498 renal
HCT-15 colon = test system: HCT-15 colon
RXF-631 renal = test system: RXF-631 renal

Measured: TGI

CCCCN(CCCC)CCCn1cnc2ncccc2c1=O
not listed: HL-60(TB) leukemia | HOP-18 NSCLC | RPMI-8226 leukemia | UACC-257 melanoma | A498 renal | HCT-15 colon | RXF-631 renal
> 100 µM: all other assays above

[O-]c1c2c(nn1-c1ccc(Cl)cc1)c1ccccc1c[n+]2Cc1ccccc1
79.5 µM: RXF 393 renal
69.2 µM: SNB-75 CNS
not listed: HOP-92 NSCLC | M19-MEL melanoma | A498 renal | HCT-15 colon | RXF-631 renal
> 100 µM: all other assays above

Cc1ccc(-c2cc(-c3ccco3)c(C#N)c(=O)n2C2OC(CO)C(O)C(O)C2O)cc1 (stereo not drawn)
59.8 µM: SK-OV-3 ovarian
78.2 µM: MALME-3M melanoma
50.9 µM: A498 renal
45.7 µM: SK-MEL-5 melanoma
91.4 µM: HOP-62 NSCLC
not listed: 786-0 renal | A549 NSCLC | CAKI-1 renal | HOP-92 NSCLC | M19-MEL melanoma | SF-539 CNS | SK-MEL-2 melanoma | SNB-75 CNS | XF 498 CNS | RXF-631 renal
> 100 µM: all other assays above

CCOC(=O)C(=O)Nc1ccccc1C(C)C
not listed: LOX IMVI melanoma | RXF 393 renal | SNB-78 CNS
> 100 µM: all other assays above

CC(=O)O[C@H]1CC2C=CC3C(CCC31)O2 (stereo partly drawn)
not listed: HCT-116 colon | HOP-92 NSCLC | KM12 colon | NCI-H226 lung | NCI-H522 lung | OVCAR-5 ovarian | SF-295 CNS | SF-539 CNS | SK-MEL-2 melanoma | SK-MEL-5 melanoma | SR leukemia | RPMI-8226 leukemia | UACC-257 melanoma | A498 renal | RXF-631 renal
> 100 µM: all other assays above

COc1ccc(-c2cc(=O)c3c(O)cc(O)cc3o2)c(OC)c1OC
not listed: ACHN renal | DMS 273 small cell lung | HCT-116 colon | MOLT-4 leukemia | NCI-H460 lung | OVCAR-8 ovarian | SK-MEL-5 melanoma | SNB-78 CNS | SR leukemia | U251 CNS | UO-31 renal | HOP-18 NSCLC | A498 renal | HCT-15 colon | RXF-631 renal
> 100 µM: all other assays above

CCc1cccc(C)c1NC(=S)NC(=O)c1ccccc1C(=O)NC(=S)Nc1c(C)cccc1CC
35.2 µM: NCI-H522 lung
80.9 µM: OVCAR-3 ovarian
70.8 µM: DMS 114 small cell lung
65.4 µM: HOP-92 NSCLC
not listed: XF 498 CNS | RXF-631 renal
> 100 µM: all other assays above

CCOC(=O)c1cccnc1C(OC(C)=O)OC(C)=O
not listed: RPMI-8226 leukemia | RXF-631 renal
> 100 µM: all other assays above
